In patent US20220324770A1, “NITRIFICATION INHIBITORS” (The University of Melbourne, priority 2019, published 2022):

Experiments:
Dahlen soil = assay: Soil microcosm incubation (nitrification of applied ammonium), Dahlen soil; details: for Nitrified NH4+—N (%) Day 3 / Nitrified NH4+—N (%) Day 7 / Nitrified NH4+—N (%) Day 14 / Nitrified NH4+—N (%) Day 21 / Nitrified NH4+—N (%) Day 28: 10 mol %
Method: (§1) The soil used in this study was collected from four different locations in Victoria, Australia: (i) a wheat cropping soil from Horsham (36° 45′S, 142° 07′ E), (ii) a rotational cropping soil from Dahlen (36° 37′S, 142° 09′ E), (iii) a vegetable growing soil from Clyde (38° 08′S, 145° 20′ E), and (iv) a pasture soil from Terang (38° 15′S, 142° 52′E). In addition, a sugarcane cropping soil from South Johnstone in northern Queensland (17° 34′S, 145° 57′ E) was also studied. The water content of the soil was calculated before commencing each experiment, from samples that were oven-dried to constant weight. The soil's water-filled pore space (WFPS) was in the range 52%-61%, which is within the recommended 50-70% range for microbial activity due to oxygen and nutrient availability (Fichtner, T., et al., Applied Sciences, 2019, 9, 496).
(§2) Soil microcosm incubations were carried out in 250 ml polypropylene specimen containers (Sarstedt, Germany), containing 18.24 g oven dry-weight equivalent of soil. Microcosms were re-wetted and pre-incubated at the test temperature for seven days to revive soil microbial activity. Following pre-incubation, the remaining volume to reach the desired water-filled pore spaces (WFPS %) was applied as one of the following treatment solutions; (NH4)2SO4(Control), (NH4)2SO4+DMPP, or (NH4)2SO4+one of Compounds 1-23. Each treatment was applied in triplicate per soil type, so that n=3 at each time point.
(§3) Treatment solutions were prepared such that each microcosm received (NH4)2SO4 at a rate of 100 mg N per kg soil, Compounds 1-23 at 10 mol % of applied N, or DMPP at one of 1.5, 3.6 or 10 mol % of applied N, referred to as L-DMPP, M-DMPP or H-DMPP respectively.
(§4) The microcosms were incubated for 0, 3, 7, 14, 21 or 28 days, where day 0 samples were extracted following 1-hour incubation post-treatment. Soil microcosms were aerated and moisture levels were replenished based on weight loss every few days throughout the incubation period.
(§5) At the end of each incubation period, soil microcosms were destructively sampled by treatment with 2M KCl (100 mL). After shaking for 1 hour, soil-KCl solutions were filtered (Whatman 42) before storing the filtrates at −20° C. until the conclusion of the experiment. All KCl extracts were then analysed by Segmented Flow Analysis (San++, Skalar, Breda, The Netherlands) for the concentration of nitrogen from ammonium (NH4^+—N) and nitrogen from NO3 and NO2 (NOx^−—N) after appropriate dilutions. Results are reported as the mean of three replicates, errors reported are standard errors of the mean.
(§6) Nitrification calculations were performed as previously reported (Aulakh, M., et al., Biology and Fertility of Soils 2001, 33, 258-263; Mahmood, T., et al., Soil Research 2017, 55, 715-722) without correction for the initial baseline concentrations of NH4^+—N or NO3^− N in the untreated soil. For each treatment nitrified NH4^+—N (%) was calculated according to eqn. 1:
(§7) where [NH4^+—N]0 is the NH4^+—N concentration (in mg N kg^−1 soil) of the soil on day 0 and [NH4^+—N]t is the NH4^+—N concentration (in mg N kg^−1 soil) of the soil at a given time point t.
(§8) NOx^−—N accumulation rates (mg NOx^−—N/kg soil/day) over the 28-day incubation experiments were calculated for each treatment as in the following (eqn. 2):
(§9) [NOx^−—N]t=0 and [NOx^−—N]t=28 are the combined concentrations of nitrite (NO2) and nitrate (NO3) in the soil (in mg N kg^−1 soil) on day 0 and day 28, respectively.

Horsham soil = assay: Soil microcosm incubation (nitrification of applied ammonium), Horsham soil; details: for rate of NOx−—N accumulation: 28-day incubation
Method: as §1, §2, §3, §4, §5, §6, §7, §8, §9

South Johnstone soil = assay: Soil microcosm incubation (nitrification of applied ammonium), South Johnstone soil; details: South Johnstone soil, 25° C., days 21 and 28
Method: as §1, §2, §3, §4, §5, §6, §7

[1] = Table 4, Dahlen soil pH 7.3, 25° C.
[2] = Table 4, Dahlen soil pH 7.3, 35° C.
[3] = Horsham soil pH 8.8, 25° C., 10 mol %
[4] = Horsham soil pH 8.8, 35° C., 10 mol %
[5] = Table 5, Dahlen soil pH 7.3, 25° C.
[6] = Table 5, Dahlen soil pH 7.3, 35° C.

## CCCCn1cc(CCC)nn1 [Compound 13, 1-butyl-4-propyl-1H-1,2,3-triazole]
Dahlen soil; Dahlen soil, 25° C., 28-day incubation
  NOx−—N accumulation rate: 2.5 mg NOx−—N/kg soil/day
Dahlen soil; Dahlen soil, 25° C., after 28 days
  retaining NH4+—N vs uninhibited control treatment and DMPP: performed statistically better
Dahlen soil; Dahlen soil, 28-day incubation
  NOx−—N accumulation rate: effect of temperature (25° C. vs 35° C.): least affected by the temperature change
Dahlen soil; Dahlen soil, 35° C., 28-day incubation
  NOx−—N accumulation rate: 2.4 mg NOx−—N/kg soil/day
Dahlen soil; Dahlen soil, 35° C., after 28 days
  retaining NH4+ vs both DMPP treatment and control treatment: performed statistically better
Dahlen soil; [1]
  Nitrified NH4+—N (%) Day 3: 10.6 ± 3.7%
  Nitrified NH4+—N (%) Day 7: 22.2 ± 50.2%
  Nitrified NH4+—N (%) Day 14: 24.9 ± 59.3%
  Nitrified NH4+—N (%) Day 21: 32.6 ± 2.4%
  Nitrified NH4+—N (%) Day 28: 41.5 ± 1.2%
Dahlen soil; [2]
  Nitrified NH4+—N (%) Day 3: −1.2 ± 1.1%
  Nitrified NH4+—N (%) Day 7: 3.5 ± 1.3%
  Nitrified NH4+—N (%) Day 14: 9.2 ± 1.1%
  Nitrified NH4+—N (%) Day 21: 34.2 ± 2.4%
  Nitrified NH4+—N (%) Day 28: 33.6 ± 1.3%
Horsham soil; Horsham soil pH 8.8, 25° C., inhibitors 10 mol % of applied N
  Nitrified NH4+—N (%) Day 3: 17.7 ± 3.9%
Horsham soil; [3]
  Nitrified NH4+—N (%) Day 7: 23.4 ± 5.4%
  Nitrified NH4+—N (%) Day 14: 40.0 ± 4.3%
  Nitrified NH4+—N (%) Day 21: 47.2 ± 4.3%
  Nitrified NH4+—N (%) Day 28: 72.2 ± 4.8%
Horsham soil; [4]
  Nitrified NH4+—N (%) Day 3: 3.5 ± 6.4%
  Nitrified NH4+—N (%) Day 7: 18.7 ± 5.5%
  Nitrified NH4+—N (%) Day 14: 48.0 ± 5.3%
  Nitrified NH4+—N (%) Day 21: 59.3 ± 10.3%
  Nitrified NH4+—N (%) Day 28: 61.2 ± 14.2%
Horsham soil; Horsham soil, 25° C.
  rate of NOx−—N accumulation: 2.8 mg NOx−—N/kg soil/day
Horsham soil; Horsham soil, 25° C., after 28 days
  retaining NH4+ vs uninhibited control treatment: performed statistically better
Horsham soil; Horsham soil, 35° C.
  nitrification rates vs uninhibited control treatment: lower nitrification rates than the uninhibited control treatment
  retaining NH4+ and preventing NOx production (statistics vs control): performed statistically better
  rate of NOx−—N accumulation: 2.8 mg NOx−—N/kg soil/day
Horsham soil; Horsham soil, 35° C., after 28 days
  NH4+—N consumption: 61%

## CCCc1cn(CC(=O)OCC)nn1 [Compound 19, ethyl 2-(4-propyl-1H-1,2,3-triazol-1-yl)-acetate]
South Johnstone soil
  effectiveness among the treatments (NH4+—N retention, NOx−—N growth): least effective

## C=CCOC(=O)Cn1cc(CCC)nn1 [Compound 20, prop-2-en-1-yl 2-(4-propyl-1H-1,2,3-triazol-1-yl)-acetate]
Dahlen soil; Dahlen soil, 25° C., Table 5 test
  retaining NH4+—N levels by day 28 vs fertilised control (and DMPP): performed statistically better than the fertilised control
Dahlen soil; Dahlen soil, 35° C., Table 5 test
  retaining NH4+—N vs (NH4)2SO4-treated control by day 28: remain highly effective
Dahlen soil; Table 5 (further comparative test), Dahlen soil pH 7.3, 25° C.
  Nitrified NH4+—N (%) Day 3: 1.9 ± 1.3%
Dahlen soil; [5]
  Nitrified NH4+—N (%) Day 7: 8.0 ± 0.6%
  Nitrified NH4+—N (%) Day 14: 15.2 ± 1.2%
  Nitrified NH4+—N (%) Day 21: 26.0 ± 2.1%
  Nitrified NH4+—N (%) Day 28: 31.8 ± 4.5%
Dahlen soil; [6]
  Nitrified NH4+—N (%) Day 3: 16.6 ± 4.5%
  Nitrified NH4+—N (%) Day 7: 5.0 ± 4.3%
  Nitrified NH4+—N (%) Day 14: 17.7 ± 3.8%
  Nitrified NH4+—N (%) Day 21: 17.1 ± 3.6%
  Nitrified NH4+—N (%) Day 28: 45.6 ± 8.3%
